Values after ≈ are worked out from the molar mass of the structure shown.
Assays:
Assay type in all cases: cell-based
strain 21 = test: MIC determination, broth microdilution (CLSI)
[1] = tested on: P. aeruginosa 2297-con (AmpC derepressed); test: MIC determination, broth microdilution (CLSI); settings: Pseudomonas aeruginosa, read-out: strain 8 MIC, strain 8
S. pneumoniae 113 = test: MIC determination, broth microdilution (CLSI); settings: Streptococcus pneumoniae, 113, strain 14; read-out: strain 14 MIC
E. coli J62 = test: MIC determination, broth microdilution (CLSI); settings: Escherichia coli, J62, strain 17; read-out: strain 17 MIC
C. freundii K21/3034 = test: MIC determination, broth microdilution (CLSI); settings: Citrobacter freundii, K21/3034, strain 4
E. coli ATCC25922 = test: MIC determination, broth microdilution (CLSI); settings: Escherichia coli, ATCC25922, strain 1
S. maltophilia ICB7569 = test: MIC determination, broth microdilution (CLSI); settings: Stenotrophomonas maltophilia, ICB7569, strain 10
B. fragilis 6688 = test: MIC determination, broth microdilution (CLSI); settings: Bacteroides fragilis, 6688, strain 15; read-out: strain 15 MIC
E. coli J62-TEM-3 = test: MIC determination, broth microdilution (CLSI); settings: Escherichia coli, J62TEM3, read-out: strain 18 MIC, strain 18
E. cloacae 34654 = test: MIC determination, broth microdilution (CLSI); settings: Enterobacter cloacae, 34654, strain 3
A. baumannii ATCC15308 = test: MIC determination, broth microdilution (CLSI); settings: Acinetobacter baumannii, ATCC15308, strain 9
H. influenzae ATCC 49247 = test: MIC determination, broth microdilution (CLSI); settings: Haemophilus influenzae, ATCC49247, strain 13; read-out: strain 13 MIC
S. aureus 133 = test: MIC determination, broth microdilution (CLSI); settings: Staphylococcus aureus, 133, strain 11; read-out: strain 11 MIC
K. pneumoniae 60 = test: MIC determination, broth microdilution (CLSI); settings: Klebsiella pneumoniae, 60, strain 2
strain 19 = test: MIC determination, broth microdilution (CLSI)
M. morganii 126/3048 = test: MIC determination, broth microdilution (CLSI); settings: Morganella morganii, 126/3048, strain 5
strain 20 = test: MIC determination, broth microdilution (CLSI)
C. perfringens DSM756 = test: microbe, parasite or virus in culture; settings: Clostridium perfringens, DSM756, read-out: strain 16 MIC, strain 16
[2] = tested on: P. aeruginosa 2297 (AmpC wt); test: MIC determination, broth microdilution (CLSI); settings: Pseudomonas aeruginosa, strain 7
P. aeruginosa PAO1 = test: MIC determination, broth microdilution (CLSI); settings: Pseudomonas aeruginosa, PAO1, strain 6
M. catarrhalis ICB489 = test: MIC determination, broth microdilution (CLSI); settings: Moraxella catarrhalis, ICB489, strain 12

Structure (SMILES) | MIC (strain 21) [µg/mL] | MIC [1] [µg/mL] | MIC (S. pneumoniae 113) [µg/mL] | MIC (E. coli J62) [µg/mL] | MIC (C. freundii K21/3034) [µg/mL] | MIC (E. coli ATCC25922) [µg/mL] | MIC (S. maltophilia ICB7569) [µg/mL] | MIC (B. fragilis 6688) [µg/mL] | MIC (E. coli J62-TEM-3) [µg/mL] | MIC (E. cloacae 34654) [µg/mL] | MIC (A. baumannii ATCC15308) [µg/mL] | MIC (H. influenzae ATCC 49247) [µg/mL] | MIC (S. aureus 133) [µg/mL] | MIC (K. pneumoniae 60) [µg/mL] | MIC (strain 19) [µg/mL] | MIC (M. morganii 126/3048) [µg/mL] | MIC (strain 20) [µg/mL] | MIC (C. perfringens DSM756) [µg/mL] | MIC [2] [µg/mL] | MIC (P. aeruginosa PAO1) [µg/mL] | other results
CC1(C)[C@H](NC(=O)/C(=N\OCCSc2ccc(C(=N)N)cc2)c2csc(N)n2)C(=O)N1OS(=O)(=O)O [Example 7, (2Z)-2-(2-Amino-1,3-thiazol-4-yl)-2-({2-[(4-carbamimidoylphenyl)sulfanyl]ethoxy}imino)-N-[(3S)-2,2-dimethyl-4-oxo-1-(sulfooxy)azetidin-3-yl]ethanamide] | 1 (≈ 1.79 µM) | 8 (≈ 14.3 µM) | 2 (≈ 3.59 µM) | 1 (≈ 1.79 µM) | 0.5 (≈ 0.897 µM) | 0.5 (≈ 0.897 µM) | 4 (≈ 7.17 µM) | 1 (≈ 1.79 µM) | 8 (≈ 14.3 µM) | 1 (≈ 1.79 µM) | 2 (≈ 3.59 µM) | ≤ 0.063 | ≤ 0.063 | 1 (≈ 1.79 µM) | 0.5 (≈ 0.897 µM) | 0.5 (≈ 0.897 µM) | 1 (≈ 1.79 µM) | 2 (≈ 3.59 µM) | 16 (≈ 28.7 µM) | 8 (≈ 14.3 µM) | MIC (M. catarrhalis ICB489): 0.25 µg/mL (≈ 0.448 µM)
CC1(C)[C@H](NC(=O)/C(=N\OCCOc2ccnc(C(=N)N)c2)c2csc(N)n2)C(=O)N1OS(=O)(=O)O [Example 15, (2Z)-2-(2-Amino-1,3-thiazol-4-yl)-2-({2-[(2-carbamimidoylpyridin-4-yl)oxy]ethoxy}imino)-N-[(3S)-2,2-dimethyl-4-oxo-1-(sulfooxy)azetidin-3-yl]ethanamide] | 0.5 (≈ 0.922 µM) | 8 (≈ 14.7 µM) | 2 (≈ 3.69 µM) | 1 (≈ 1.84 µM) | 0.5 (≈ 0.922 µM) | 0.5 (≈ 0.922 µM) | 4 (≈ 7.37 µM) | 2 (≈ 3.69 µM) | 8 (≈ 14.7 µM) | 1 (≈ 1.84 µM) | 2 (≈ 3.69 µM) | ≤ 0.063 | ≤ 0.063 | 1 (≈ 1.84 µM) | 0.5 (≈ 0.922 µM) | 0.5 (≈ 0.922 µM) | 0.5 (≈ 0.922 µM) | 0.5 (≈ 0.922 µM) | 8 (≈ 14.7 µM) | 8 (≈ 14.7 µM) | MIC (M. catarrhalis ICB489): ≤ 0.063 µg/mL
CC1(C)[C@H](NC(=O)/C(=N\OCCOc2cc(C(=N)N)ccn2)c2csc(N)n2)C(=O)N1OS(=O)(=O)O [Example 22, (2Z)-2-(2-Amino-1,3-thiazol-4-yl)-2-({2-[(4-carbamimidoylpyridin-2-yl)oxy]ethoxy}imino)-N-[(3S)-2,2-dimethyl-4-oxo-1-(sulfooxy)azetidin-3-yl]ethanamide] | 1 (≈ 1.84 µM) | 16 (≈ 29.5 µM) | 2 (≈ 3.69 µM) | 1 (≈ 1.84 µM) | 0.5 (≈ 0.922 µM) | 1 (≈ 1.84 µM) | 4 (≈ 7.37 µM) | 4 (≈ 7.37 µM) | 8 (≈ 14.7 µM) | 1 (≈ 1.84 µM) | 4 (≈ 7.37 µM) | ≤ 0.063 | ≤ 0.063 | 1 (≈ 1.84 µM) | 0.5 (≈ 0.922 µM) | 1 (≈ 1.84 µM) | 1 (≈ 1.84 µM) | 2 (≈ 3.69 µM) | 32 (≈ 59 µM) | 16 (≈ 29.5 µM) | MIC (M. catarrhalis ICB489): 0.125 µg/mL (≈ 0.23 µM)
CC1(C)[C@H](NC(=O)/C(=N\OCCOc2ccc(C(=N)NC3CCNCC3)cc2)c2csc(N)n2)C(=O)N1OS(=O)(=O)O [Example 23, (2Z)-2-(2-Amino-1,3-thiazol-4-yl)-N-[(3S)-2,2-dimethyl-4-oxo-1-(sulfooxy)azetidin-3-yl]-2-[(2-{4-[N-(piperidin-4-yl)carbamimidoyl]phenoxy}ethoxy)imino]ethanamide] | 0.25 (≈ 0.4 µM) | 2 (≈ 3.2 µM) | 1 (≈ 1.6 µM) | 0.25 (≈ 0.4 µM) | 0.125 (≈ 0.2 µM) | 0.125 (≈ 0.2 µM) | 16 (≈ 25.6 µM) | 4 (≈ 6.4 µM) | 1 (≈ 1.6 µM) | 0.5 (≈ 0.8 µM) | 0.5 (≈ 0.8 µM) | ≤ 0.063 | ≤ 0.063 | 0.25 (≈ 0.4 µM) | 0.125 (≈ 0.2 µM) | 0.5 (≈ 0.8 µM) | 0.125 (≈ 0.2 µM) | 2 (≈ 3.2 µM) | 2 (≈ 3.2 µM) | 2 (≈ 3.2 µM) | MIC (M. catarrhalis ICB489): ≤ 0.063 µg/mL
CC1(C)[C@H](NC(=O)/C(=N\OCCOc2ccc(C(=N)NCCN)cc2)c2csc(N)n2)C(=O)N1OS(=O)(=O)O [Example 24, (2Z)-2-[(2-{4-[N-(2-Aminoethyl)carbamimidoyl]phenoxy}ethoxy)imino]-2-(2-amino-1,3-thiazol-4-yl)-N-[(3S)-2,2-dimethyl-4-oxo-1-(sulfooxy)azetidin-3-yl]ethanamide] | 0.5 (≈ 0.855 µM) | 2 (≈ 3.42 µM) | 2 (≈ 3.42 µM) | 0.125 (≈ 0.214 µM) | 0.125 (≈ 0.214 µM) | 0.125 (≈ 0.214 µM) | 8 (≈ 13.7 µM) | 2 (≈ 3.42 µM) | 2 (≈ 3.42 µM) | 0.25 (≈ 0.428 µM) | 1 (≈ 1.71 µM) | ≤ 0.063 | ≤ 0.063 | 0.25 (≈ 0.428 µM) | 0.125 (≈ 0.214 µM) | 0.125 (≈ 0.214 µM) | 0.25 (≈ 0.428 µM) | 2 (≈ 3.42 µM) | 4 (≈ 6.84 µM) | 2 (≈ 3.42 µM) | MIC (M. catarrhalis ICB489): ≤ 0.063 µg/mL
CC1(C)[C@H](NC(=O)/C(=N\OCCOc2ccc(C3=NCCN3)cc2)c2csc(N)n2)C(=O)N1OS(=O)(=O)O [Example 25, (2Z)-2-(2-Amino-1,3-thiazol-4-yl)-2-({2-[4-(4,5-dihydro-1H-imidazol-2-yl)phenoxy]ethoxy}imino)-N-[(3S)-2,2-dimethyl-4-oxo-1-(sulfooxy)azetidin-3-yl]ethanamide] | 0.125 (≈ 0.22 µM) | 4 (≈ 7.05 µM) | 4 (≈ 7.05 µM) | 0.25 (≈ 0.44 µM) | 0.125 (≈ 0.22 µM) | 0.125 (≈ 0.22 µM) | 8 (≈ 14.1 µM) | 2 (≈ 3.52 µM) | 4 (≈ 7.05 µM) | 0.25 (≈ 0.44 µM) | 2 (≈ 3.52 µM) | ≤ 0.063 | ≤ 0.063 | 0.25 (≈ 0.44 µM) | 0.125 (≈ 0.22 µM) | 0.125 (≈ 0.22 µM) | 0.125 (≈ 0.22 µM) | 2 (≈ 3.52 µM) | 4 (≈ 7.05 µM) | 2 (≈ 3.52 µM) | MIC (M. catarrhalis ICB489): ≤ 0.063 µg/mL
CC1(C)[C@H](NC(=O)/C(=N\OCCOc2cnc(C(=N)N)c(O)c2)c2csc(N)n2)C(=O)N1OS(=O)(=O)O [Example 33, (2Z)-2-(2-Amino-1,3-thiazol-4-yl)-2-({2-[(6-carbamimidoyl-5-hydroxypyridin-3-yl)oxy]ethoxy}imino)-N-[(3S)-2,2-dimethyl-4-oxo-1-(sulfooxy)azetidin-3-yl]ethanamide] | 0.5 (≈ 0.895 µM) | 8 (≈ 14.3 µM) | 32 (≈ 57.3 µM) | 0.5 (≈ 0.895 µM) | 0.25 (≈ 0.448 µM) | 0.25 (≈ 0.448 µM) | 16 (≈ 28.6 µM) | 4 (≈ 7.16 µM) | 32 (≈ 57.3 µM) | 0.5 (≈ 0.895 µM) | 8 (≈ 14.3 µM) | ≤ 0.063 | ≤ 0.063 | 0.5 (≈ 0.895 µM) | 0.25 (≈ 0.448 µM) | 0.25 (≈ 0.448 µM) | 0.25 (≈ 0.448 µM) | 2 (≈ 3.58 µM) | 16 (≈ 28.6 µM) | 8 (≈ 14.3 µM) | MIC (M. catarrhalis ICB489): 0.125 µg/mL (≈ 0.224 µM)

From patent publication US9556165B2 (priority 2012, dated 2017)
